# Measured values as given in ChEMBL document CHEMBL3994622, “Design and synthesis of new RAF kinase-inhibiting antiproliferative quinoline derivatives. Part 2: Diarylurea derivatives” (Eur J Med Chem, 2017).
# How the values were obtained:
# [1] = target: RAC-alpha serine/threonine-protein kinase (Homo sapiens) (UniProt P31749); experiment: Inhibition of human AKT1 at 10 uM using KGSGSGRPRTSSFAEG as substrate in presence of [33P]ATP by Hotspot assay relative to control
# [2] = tested on: BT-549; experiment: Growth inhibition of human BT549 cells assessed as cell growth at 30 uM incubated for 48 hrs by sulforhodamine B assay relative to control; assay type: functional; conditions: BT-549, 48 h, read-out: Activity
# [3] = tested on: LOX IMVI; experiment: Growth inhibition of human LOXIMVI cells assessed as cell growth at 0.003 uM incubated for 48 hrs by sulforhodamine B assay relative to control; assay type: functional; conditions: read-out: Activity
# [4] = tested on: EKVX; experiment: Growth inhibition of human EKVX cells assessed as cell growth at 30 uM incubated for 48 hrs by sulforhodamine B assay relative to control; assay type: functional; conditions: read-out: Activity
# [5] = tested on: MDA-MB-468; experiment: Growth inhibition of human MDA-MB-468 cells assessed as cell growth at 30 uM incubated for 48 hrs by sulforhodamine B assay relative to control; assay type: functional; conditions: MDA-MB-468, 48 h, read-out: Activity
# [6] = tested on: T47D; experiment: Growth inhibition of human T47D cells assessed as cell growth at 10 uM incubated for 48 hrs by sulforhodamine B assay relative to control; assay type: functional; conditions: read-out: Activity
# [7] = tested on: NCI-H460; experiment: Growth inhibition of human NCI-H460 cells assessed as cell growth at 10 uM incubated for 48 hrs by sulforhodamine B assay relative to control; assay type: functional; conditions: NCI-H460, 48 h, read-out: Activity
# [8] = tested on: MOLT-4; experiment: Growth inhibition of human MOLT4 cells assessed as cell growth at 50 uM incubated for 48 hrs by sulforhodamine B assay relative to control; assay type: functional; conditions: MOLT-4, 48 h, read-out: Activity
# [9] = tested on: OVCAR-4; experiment: Growth inhibition of human OVCAR4 cells assessed as cell growth at 50 uM incubated for 48 hrs by sulforhodamine B assay relative to control; assay type: functional; conditions: OVCAR-4, 48 h, read-out: Activity
# [10] = tested on: Malme-3M; experiment: Growth inhibition of human MALME-3M cells assessed as cell growth at 0.05 uM incubated for 48 hrs by sulforhodamine B assay relative to control; assay type: functional; conditions: read-out: Activity
# [11] = tested on: SK-MEL-28; experiment: Growth inhibition of human SK-MEL-28 cells assessed as cell growth at 50 uM incubated for 48 hrs by sulforhodamine B assay relative to control; assay type: functional; conditions: SK-MEL-28, 48 h, read-out: Activity
# [12] = tested on: HCT-15; experiment: Growth inhibition of human HCT15 cells assessed as cell growth at 0.05 uM incubated for 48 hrs by sulforhodamine B assay relative to control; assay type: functional; conditions: HCT-15, 48 h, read-out: Activity
# [13] = tested on: PC-3; experiment: Growth inhibition of human PC3 cells assessed as cell growth at 0.005 uM incubated for 48 hrs by sulforhodamine B assay relative to control; assay type: functional; conditions: PC-3, 48 h, read-out: Activity
# [14] = tested on: NCI-H23; experiment: Growth inhibition of human NCI-H23 cells assessed as cell growth at 0.005 uM incubated for 48 hrs by sulforhodamine B assay relative to control; assay type: functional; conditions: NCI-H23, 48 h, read-out: Activity
# [15] = tested on: OVCAR-5; experiment: Growth inhibition of human OVCAR5 cells assessed as cell growth at 0.05 uM incubated for 48 hrs by sulforhodamine B assay relative to control; assay type: functional; conditions: OVCAR-5, 48 h, read-out: Activity
# [16] = tested on: EKVX; experiment: Growth inhibition of human EKVX cells assessed as cell growth at 5 uM incubated for 48 hrs by sulforhodamine B assay relative to control; assay type: functional; conditions: read-out: Activity
# [17] = tested on: MDA-MB-435; experiment: Growth inhibition of human MDA-MB-435 cells assessed as cell growth at 50 uM incubated for 48 hrs by sulforhodamine B assay relative to control; assay type: functional; conditions: MDA-MB-435, 48 h, read-out: Activity
# [18] = tested on: OVCAR-5; experiment: Growth inhibition of human OVCAR5 cells assessed as cell growth at 50 uM incubated for 48 hrs by sulforhodamine B assay relative to control; assay type: functional; conditions: OVCAR-5, 48 h, read-out: Activity
# [19] = tested on: SF-539; experiment: Growth inhibition of human SF539 cells assessed as cell growth at 0.5 uM incubated for 48 hrs by sulforhodamine B assay relative to control; assay type: functional; conditions: SF-539, 48 h, read-out: Activity
# [20] = tested on: T47D; experiment: Growth inhibition of human T47D cells assessed as cell growth at 0.05 uM incubated for 48 hrs by sulforhodamine B assay relative to control; assay type: functional; conditions: read-out: Activity
# [21] = tested on: HCC 2998; experiment: Growth inhibition of human HCC2998 cells assessed as cell growth at 0.005 uM incubated for 48 hrs by sulforhodamine B assay relative to control; assay type: functional; conditions: HCC 2998, 48 h, read-out: Activity
# [22] = tested on: OVCAR-4; experiment: Growth inhibition of human OVCAR4 cells assessed as cell growth at 0.5 uM incubated for 48 hrs by sulforhodamine B assay relative to control; assay type: functional; conditions: OVCAR-4, 48 h, read-out: Activity
# [23] = tested on: NCI-H322M; experiment: Growth inhibition of human NCI-H322M cells assessed as cell growth at 0.05 uM incubated for 48 hrs by sulforhodamine B assay relative to control; assay type: functional; conditions: read-out: Activity
# [24] = tested on: COLO 205; experiment: Growth inhibition of human COLO205 cells assessed as cell growth at 50 uM incubated for 48 hrs by sulforhodamine B assay relative to control; assay type: functional; conditions: COLO 205, 48 h, read-out: Activity
# [25] = tested on: HCT-15; experiment: Growth inhibition of human HCT15 cells assessed as cell growth at 0.005 uM incubated for 48 hrs by sulforhodamine B assay relative to control; assay type: functional; conditions: HCT-15, 48 h, read-out: Activity
# [26] = tested on: OVCAR-3; experiment: Growth inhibition of human OVCAR3 cells assessed as cell growth at 0.005 uM incubated for 48 hrs by sulforhodamine B assay relative to control; assay type: functional; conditions: OVCAR-3, 48 h, read-out: Activity
# [27] = tested on: TK-10; experiment: Growth inhibition of human TK10 cells assessed as cell growth at 0.005 uM incubated for 48 hrs by sulforhodamine B assay relative to control; assay type: functional; conditions: TK-10, 48 h, read-out: Activity
# [28] = tested on: LOX IMVI; experiment: Growth inhibition of human LOXIMVI cells assessed as cell growth at 0.5 uM incubated for 48 hrs by sulforhodamine B assay relative to control; assay type: functional; conditions: read-out: Activity
# [29] = tested on: NCI-H322M; experiment: Growth inhibition of human NCI-H322M cells assessed as cell growth at 5 uM incubated for 48 hrs by sulforhodamine B assay relative to control; assay type: functional; conditions: read-out: Activity
# [30] = tested on: IGROV-1; experiment: Growth inhibition of human IGROV1 cells assessed as cell growth at 5 uM incubated for 48 hrs by sulforhodamine B assay relative to control; assay type: functional; conditions: IGROV-1, 48 h, read-out: Activity
# [31] = tested on: SF-268; experiment: Growth inhibition of human SF268 cells assessed as cell growth at 50 uM incubated for 48 hrs by sulforhodamine B assay relative to control; assay type: functional; conditions: SF-268, 48 h, read-out: Activity
# [32] = tested on: DU-145; experiment: Growth inhibition of human DU145 cells assessed as cell growth at 0.05 uM incubated for 48 hrs by sulforhodamine B assay relative to control; assay type: functional; conditions: DU-145, 48 h, read-out: Activity
# [33] = tested on: TK-10; experiment: Growth inhibition of human TK10 cells assessed as cell growth at 5 uM incubated for 48 hrs by sulforhodamine B assay relative to control; assay type: functional; conditions: TK-10, 48 h, read-out: Activity
# [34] = tested on: NCI/ADR-RES; experiment: Growth inhibition of human NCI/ADR-RES cells assessed as cell growth at 0.005 uM incubated for 48 hrs by sulforhodamine B assay relative to control; assay type: functional; conditions: read-out: Activity
# RAC-alpha serine/threonine-protein kinase (Homo sapiens), sequence (P31749 whole entry): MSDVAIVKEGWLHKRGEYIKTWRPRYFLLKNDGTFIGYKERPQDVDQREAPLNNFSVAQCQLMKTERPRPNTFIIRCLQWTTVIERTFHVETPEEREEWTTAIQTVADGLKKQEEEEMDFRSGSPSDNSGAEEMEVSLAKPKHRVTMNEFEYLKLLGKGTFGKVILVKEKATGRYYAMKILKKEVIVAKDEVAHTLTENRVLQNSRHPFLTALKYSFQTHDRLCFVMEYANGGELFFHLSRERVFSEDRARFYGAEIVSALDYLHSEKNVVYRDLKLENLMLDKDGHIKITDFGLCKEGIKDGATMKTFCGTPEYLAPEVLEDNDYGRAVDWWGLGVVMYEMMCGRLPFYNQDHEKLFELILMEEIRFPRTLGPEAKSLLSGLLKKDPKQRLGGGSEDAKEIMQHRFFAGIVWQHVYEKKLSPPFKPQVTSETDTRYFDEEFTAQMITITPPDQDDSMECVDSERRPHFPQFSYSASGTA
compound,measurement,setting,value
COc1cc2cc(Oc3ccc(NC(=O)Nc4ccc(Cl)c(C(F)(F)F)c4)cc3)c(C)nc2cc1OC,inhibition,[1],0.06%
same,growth at 30 µM,[2],-65%
same,growth at 0.003 µM,[3],100%
same,growth at 30 µM,[4],-70%
Cc1nc2cc(O)c(O)cc2cc1Oc1ccc(NC(=O)Nc2ccc(Cl)c(Cl)c2)cc1,growth at 30 µM,[5],-34%
COc1cc2cc(Oc3ccc(NC(=O)Nc4cc(C(F)(F)F)cc(C(F)(F)F)c4)cc3)c(C)nc2cc1OC,growth at 10 µM,[6],-21%
same,growth at 10 µM,[7],-64%
COc1cc2cc(Oc3ccc(NC(=O)Nc4cccc(C(F)(F)F)c4)cc3)c(C)nc2cc1OC,growth at 50 µM,[8],-22%
same,growth at 50 µM,[9],-63%
same,growth at 0.05 µM,[10],96%
same,growth at 50 µM,[11],-74%
same,growth at 0.05 µM,[12],94%
same,growth at 0.005 µM,[13],94%
same,growth at 0.005 µM,[14],96%
same,growth at 0.05 µM,[15],103%
same,growth at 5 µM,[16],6%
same,growth at 50 µM,[17],-29%
same,growth at 50 µM,[18],-44%
same,growth at 0.5 µM,[19],104%
same,growth at 0.05 µM,[20],101%
same,growth at 0.005 µM,[21],99%
same,growth at 0.5 µM,[22],99%
same,growth at 0.05 µM,[23],96%
same,growth at 50 µM,[24],-88%
same,growth at 0.005 µM,[25],96%
same,growth at 0.005 µM,[26],101%
same,growth at 0.005 µM,[27],92%
same,growth at 0.5 µM,[28],97%
same,growth at 5 µM,[29],31%
same,growth at 5 µM,[30],31%
same,growth at 50 µM,[31],-32%
same,growth at 0.05 µM,[32],94%
same,growth at 5 µM,[33],19%
same,growth at 0.005 µM,[34],105%
